The structures appear in SMILES notation.

The subject of assay [1] is Botrytis cinerea. Kind of assay: Test B: gray mold, preventive spray on tomato seedlings. As to conditions: 100 = 100% disease control; for Test B rating (% disease control): 10 ppm, gray mold on tomato, 0 = no control; for Test B disease control rating: 10 ppm test solution, 0 = no control relative to controls.
Assay [2] has as its system Erysiphe graminis f sp. tritici. Kind of assay: Test G: wheat powdery mildew, preventive spray on wheat seedlings. Conditions: 100 = 100% disease control; for Test G rating (% disease control): 10 ppm, wheat powdery mildew, 0 = no control; for Test G disease control rating: 10 ppm test solution, 0 = no control relative to controls.
From the text: General protocol for preparing test solutions for Tests A-G: the test compounds were first dissolved in acetone in an amount equal to 3% of the final volume and then suspended at the desired concentration (in ppm) in acetone and purified water (50/50 mix by volume) containing 250 ppm of the surfactant PEG400 (polyhydric alcohol esters). The resulting test suspensions were then used in Tests A-G. Compounds were sprayed at a concentration of 50 ppm (*) or 10 ppm to the point of run-off on the test plants, the equivalent of a rate of 200 g/ha or 40 g/ha, respectively.
The test solution was sprayed to the point of run-off on wheat seedlings. The following day the seedlings were inoculated with a spore dust of Erysiphe graminis f sp. tritici, (the causal agent of wheat powdery mildew) and incubated in a growth chamber at 20° C. for 8 days, after which time visual disease ratings were made.
Compounds with an asterisks (*) were applied at a concentration of 50 ppm, otherwise test solutions were applied at 10 ppm.
Assay [3] concerns Stagonospora nodorum. Description: Test D: wheat glume blotch, preventive spray on wheat seedlings. As to conditions: 100 = 100% disease control; for Test D rating (% disease control): 10 ppm, wheat glume blotch, 0 = no control; for Test D disease control rating: 10 ppm test solution, 0 = no control relative to controls.
The subject of assay [4] is Puccinia recondita f sp. tritici. Kind of assay: Test F: wheat leaf rust, preventive spray on wheat seedlings. As to conditions: 100 = 100% disease control; for Test F rating (% disease control): 10 ppm, wheat leaf rust, 0 = no control; for Test F disease control rating: 10 ppm test solution, 0 = no control relative to controls.
In assay [5] the test system is Zymoseptoria tritici. Kind of assay: Test E: wheat leaf blotch, preventive spray on wheat seedlings. Conditions: 100 = 100% disease control; for Test E rating (% disease control): 10 ppm, wheat leaf blotch, 0 = no control; for Test E disease control rating: 10 ppm test solution, 0 = no control relative to controls.

Consider `OC(Cn1cncn1)(C1=NOC(c2ccc(Cl)cc2)C1)c1ccc(Oc2ccccc2)cc1` (mixture of isomers) [Compound 152], for which the “Test B rating (% disease control)” value in assay [1] was found to be 0%. The “Test G rating (% disease control)” value in assay [2] came out at 87%. Also, the “Test D rating (% disease control)” value in assay [3] was 0%. Moreover, the “Test F rating (% disease control)” value in assay [4] worked out at 50%. Besides, the “Test E rating (% disease control)” value in assay [5] turned out to be 34%.
Turning to `OC(Cn1cncn1)(C1=NOC(c2ccc(-n3cc(Br)cn3)cc2)C1)c1ccc(Cl)cc1` (single isomer, unassigned) [Compound 5], the “Test B rating (% disease control)” value in assay [1] stood at 0%. Further, the “Test G rating (% disease control)” value in assay [2] is recorded as 100%. Besides, the “Test D rating (% disease control)” value in assay [3] is 40%. Also, the “Test F rating (% disease control)” value in assay [4] worked out at 100%. The “Test E rating (% disease control)” value in assay [5] was 48%.
For the molecule `OC(Cn1cncn1)(C1=NOC(c2ccc(-n3cc(Br)cn3)cc2)C1)c1ccc(Cl)cc1` (single isomer, unassigned) [Compound 6], the “Test B rating (% disease control)” value in assay [1] amounted to 0%. Further, in assay [2], the “Test G rating (% disease control)” value is 91%. In addition, the “Test D rating (% disease control)” value in assay [3] turned out to be 0%. Also, the “Test F rating (% disease control)” value in assay [4] is 0%. In addition, the “Test E rating (% disease control)” value in assay [5] is listed as 0%.
For `CC(C)(C)C(O)(Cn1cncn1)C1=NOC(c2ccc(-n3cc(Br)cn3)cc2)C1` (single isomer, unassigned) [Compound 7], the “Test B rating (% disease control)” value in assay [1] amounted to 99%. For the same molecule, the “Test G rating (% disease control)” value in assay [2] worked out at 100%. In addition, the “Test D rating (% disease control)” value in assay [3] amounted to 0%. Further, the “Test F rating (% disease control)” value in assay [4] was determined as 100%. In assay [5], the “Test E rating (% disease control)” value turned out to be 14%.
As for `CC(C)(C)C(O)(Cn1cncn1)C1=NOC(c2ccc(-n3cc(Br)cn3)cc2)C1` (single isomer, unassigned) [Compound 8], the “Test B rating (% disease control)” value in assay [1] came out at 0%. Also, the “Test G rating (% disease control)” value in assay [2] stood at 100%. Also, the “Test D rating (% disease control)” value in assay [3] turned out to be 0%. Moreover, in assay [4], the “Test F rating (% disease control)” value turned out to be 0%. Further, the “Test E rating (% disease control)” value in assay [5] is 0%.
Take `CC(C)(C)C(O)(Cn1cncn1)C1=NOC(CO[Si](C)(C)C(C)(C)C)C1` (single isomer, unassigned) [Compound 9]: the “Test B rating (% disease control)” value in assay [1] is reported as 0%. In addition, the “Test G rating (% disease control)” value in assay [2] turned out to be 64%. Further, the “Test D rating (% disease control)” value in assay [3] came to 0%. In assay [4], the “Test F rating (% disease control)” value was 0%. Besides, the “Test E rating (% disease control)” value in assay [5] was 0%.
For the molecule `CC(C)(C)C(O)(Cn1cncn1)C1=NOC(CO[Si](C)(C)C(C)(C)C)C1` (single isomer, unassigned) [Compound 10], in assay [1], the “Test B rating (% disease control)” value was 0%. For the same molecule, the “Test G rating (% disease control)” value in assay [2] stood at 13%. For the same molecule, the “Test D rating (% disease control)” value in assay [3] was 0%. Also, in assay [4], the “Test F rating (% disease control)” value is recorded as 19%. Besides, the “Test E rating (% disease control)” value in assay [5] was found to be 0%.
With `CCC(C)(C)C(O)(Cn1cncn1)C1=NOC(COc2ccc(Br)cc2)C1` (single isomer, unassigned) [Compound 11], the “Test B rating (% disease control)” value in assay [1] is 81%. The “Test G rating (% disease control)” value in assay [2] amounted to 99%. Moreover, the “Test D rating (% disease control)” value in assay [3] was found to be 100%. The “Test F rating (% disease control)” value in assay [4] came out at 100%. For the same molecule, the “Test E rating (% disease control)” value in assay [5] is reported as 88%.
On to `CCC(C)(C)C(O)(Cn1cncn1)C1=NOC(COc2ccc(Br)cc2)C1` (single isomer, unassigned) [Compound 12], for which the “Test B rating (% disease control)” value in assay [1] stood at 0%. Moreover, the “Test G rating (% disease control)” value in assay [2] is 96%. Moreover, the “Test D rating (% disease control)” value in assay [3] came out at 68%. For the same molecule, in assay [4], the “Test F rating (% disease control)” value came out at 99%. For the same molecule, the “Test E rating (% disease control)” value in assay [5] is on record as 57%.
In the same order, the values of `CC(C)(C)C(O)(Cn1cncn1)C1=NOC(CCc2ccc(C(F)(F)F)cc2)C1` (single isomer, unassigned) [Compound 13] are 0%, 100%, 100%, 100% and 98%.
In the same order, the values of `CC(C)(C)C(O)(Cn1cncn1)C1=NOC(CCc2ccc(C(F)(F)F)cc2)C1` (single isomer, unassigned) [Compound 14] are 0%, 99%, 88%, 100% and 4%.
As to `OC(Cn1cncn1)(C1=NOC(COc2ccccc2)C1)c1ccc(Cl)cc1` (single isomer, unassigned) [Compound 145], the “Test B rating (% disease control)” value in assay [1] turned out to be 0%. Moreover, the “Test G rating (% disease control)” value in assay [2] is recorded as 88%. In assay [5], the “Test E rating (% disease control)” value is 28%.
As for `OC(Cn1cncn1)(C1=NOC(COc2ncc(Cl)cn2)C1)c1ccc(Cl)cc1` (single isomer, unassigned) [Compound 166], in assay [1], the “Test B rating (% disease control)” value was 0%. The “Test D rating (% disease control)” value in assay [3] turned out to be 0%. For the same molecule, the “Test F rating (% disease control)” value in assay [4] is 41%. In addition, in assay [5], the “Test E rating (% disease control)” value worked out at 0%.
For the molecule `OC(Cn1cncn1)(C1=NOC(COc2ncc(Cl)cn2)C1)c1ccc(Cl)cc1` (single isomer, unassigned) [Compound 167], the “Test B rating (% disease control)” value in assay [1] is recorded as 0%. Also, the “Test D rating (% disease control)” value in assay [3] stood at 0%. The “Test F rating (% disease control)” value in assay [4] is 98%. The “Test E rating (% disease control)” value in assay [5] is on record as 0%.
As for `CC1(COc2ccc(Cl)cc2)CC(C(O)(Cn2cncn2)C(C)(C)C)=NO1` (single isomer, unassigned) [Compound 216], in assay [1], the “Test B disease control rating” value worked out at 0%. In addition, the “Test D disease control rating” value in assay [3] was 86%. In addition, the “Test F disease control rating” value in assay [4] is 100%. Further, in assay [5], the “Test E disease control rating” value is 0%.
Regarding `CC1(COc2ccc(Cl)cc2)CC(C(O)(Cn2cncn2)C(C)(C)C)=NO1` (single isomer, unassigned) [Compound 217], the “Test B disease control rating” value in assay [1] is 0%. Besides, in assay [3], the “Test D disease control rating” value amounted to 92%. Also, the “Test F disease control rating” value in assay [4] is reported as 100%. Further, in assay [5], the “Test E disease control rating” value came out at 0%.
`CC1(COc2ccc(Cl)cc2)CC(C(O)(Cn2cncn2)c2ccc(Cl)cc2)=NO1` (single isomer, unassigned) [Compound 218]: the “Test B disease control rating” value in assay [1] is reported as 0%. In addition, the “Test D disease control rating” value in assay [3] came to 21%. The “Test F disease control rating” value in assay [4] was 100%. Moreover, the “Test E disease control rating” value in assay [5] was found to be 0%.
`CC1(COc2ccc(Cl)cc2)CC(C(O)(Cn2cncn2)c2ccc(Cl)cc2)=NO1` (single isomer, unassigned) [Compound 219]: in assay [1], the “Test B disease control rating” value turned out to be 0%. In addition, the “Test D disease control rating” value in assay [3] worked out at 0%. For the same molecule, in assay [4], the “Test F disease control rating” value worked out at 95%. Further, the “Test E disease control rating” value in assay [5] is given as 0%.
Take `CC(C)(C)C(O)(Cn1cncn1)C1=NOC(CCOc2ccc(F)cc2)C1` (single isomer, unassigned) [Compound 270]: in assay [2], the “Test G disease control rating” value is recorded as 100%. Besides, the “Test D disease control rating” value in assay [3] is given as 99%. Moreover, the “Test F disease control rating” value in assay [4] was 100%. Moreover, in assay [5], the “Test E disease control rating” value stood at 75%.
Turning to `CC#CC(O)(Cn1cncn1)C1=NOC(c2ccc(Cl)cc2)C1` (stereo not drawn) [Compound 103, α-[5-(4-chlorophenyl)-4,5-dihydro-3-isoxazolyl]-α-1-propyn-1-yl-1H-1,2,4-triazole-1-ethanol], in assay [1], the “Test B rating (% disease control)” value is recorded as 0%. Moreover, the “Test G rating (% disease control)” value in assay [2] was 92%. For the same molecule, in assay [4], the “Test F rating (% disease control)” value amounted to 94%. In assay [5], the “Test E rating (% disease control)” value is given as 0%.
With `CC(C)(C)C(O)(Cn1cnnn1)C1=NOC(COc2ccc(Cl)cc2)C1` (stereo not drawn) [Compound 246], the “Test G disease control rating” value in assay [2] was determined as 95%. Besides, the “Test D disease control rating” value in assay [3] is given as 98%. Besides, the “Test F disease control rating” value in assay [4] stood at 100%. For the same molecule, the “Test E disease control rating” value in assay [5] is 0%.
For `CC(C)(C)C(O)(Cn1cnnn1)C1=NOC(COc2ccc(Cl)cc2)C1` (stereo not drawn) [Compound 247], in that order: 0%, 0%, 97% and 24%.
Regarding `OC(Cn1cncn1)(Cn1cncn1)C1=NOC(COc2ccc(Cl)cc2)C1` (stereo not drawn) [Compound 248], the “Test G disease control rating” value in assay [2] worked out at 98%. Also, the “Test D disease control rating” value in assay [3] was 0%. Besides, the “Test F disease control rating” value in assay [4] is 100%. Also, in assay [5], the “Test E disease control rating” value was determined as 0%.
Regarding `OC(COc1ccc(Cl)cc1)(Cn1cncn1)C1=NOC(COc2ccc(Cl)cc2)C1` (stereo not drawn) [Compound 271], the “Test G disease control rating” value in assay [2] stood at 92%. In addition, in assay [3], the “Test D disease control rating” value is 42%. For the same molecule, in assay [4], the “Test F disease control rating” value is 100%. In addition, the “Test E disease control rating” value in assay [5] is given as 2%.
With `OC(COc1ccc(Cl)cc1)(Cn1cncn1)C1=NOC(c2ccc(Cl)cc2)C1` (stereo not drawn) [Compound 272], the “Test G disease control rating” value in assay [2] was 99%. Moreover, the “Test D disease control rating” value in assay [3] worked out at 69%. Further, the “Test F disease control rating” value in assay [4] turned out to be 100%. In addition, the “Test E disease control rating” value in assay [5] is reported as 0%.
In the same order, the values of `OC(COc1ccc(Cl)cc1)(Cn1cncn1)C1=NOC(c2ccc(Cl)cc2)C1` (stereo not drawn) [Compound 273] are 69%, 11%, 98% and 2%.

Source of the values: US20160242416A1, “FUNGICIDAL ISOXAZOLINE CARBINOLS” (E I DU PONT DE NEMOURS AND COMPANY, priority 2015, published 2016).
